According to ChEMBL document CHEMBL5291721, “A preclinical secondary pharmacology resource illuminates target-adverse drug reaction associations of marketed drugs” (Nat Commun, 2023):

Key:
Motilin receptor = Motilin receptor (Homo sapiens, UniProt O43193)
[1] = biological target: T1, Neuropeptide Y receptor type 1 (Homo sapiens, UniProt P25929); conditions: read-out: AC50
T1 sequence (P25929 whole entry): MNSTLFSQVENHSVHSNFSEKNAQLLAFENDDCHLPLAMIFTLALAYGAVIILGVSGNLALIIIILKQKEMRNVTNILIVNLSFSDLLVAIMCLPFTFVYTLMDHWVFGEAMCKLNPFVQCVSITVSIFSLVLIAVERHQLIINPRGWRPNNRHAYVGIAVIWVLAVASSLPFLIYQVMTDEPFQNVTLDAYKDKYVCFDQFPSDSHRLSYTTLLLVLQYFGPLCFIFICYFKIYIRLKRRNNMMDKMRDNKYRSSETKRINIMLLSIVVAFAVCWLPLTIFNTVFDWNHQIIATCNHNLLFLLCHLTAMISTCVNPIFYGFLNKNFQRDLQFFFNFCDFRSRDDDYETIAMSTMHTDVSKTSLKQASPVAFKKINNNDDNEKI

[2] = biological target: Delta-type opioid receptor (Homo sapiens, UniProt P41143)
[3] = biological target: Sodium-dependent dopamine transporter (Homo sapiens, UniProt Q01959)
[4] = biological target: Glutamate receptor ionotropic, NMDA 1 (Rattus norvegicus, UniProt P35439)
Thromboxane A2 receptor = biological target: T2, Thromboxane A2 receptor (Homo sapiens, UniProt P21731)
T2 sequence (P21731 whole entry): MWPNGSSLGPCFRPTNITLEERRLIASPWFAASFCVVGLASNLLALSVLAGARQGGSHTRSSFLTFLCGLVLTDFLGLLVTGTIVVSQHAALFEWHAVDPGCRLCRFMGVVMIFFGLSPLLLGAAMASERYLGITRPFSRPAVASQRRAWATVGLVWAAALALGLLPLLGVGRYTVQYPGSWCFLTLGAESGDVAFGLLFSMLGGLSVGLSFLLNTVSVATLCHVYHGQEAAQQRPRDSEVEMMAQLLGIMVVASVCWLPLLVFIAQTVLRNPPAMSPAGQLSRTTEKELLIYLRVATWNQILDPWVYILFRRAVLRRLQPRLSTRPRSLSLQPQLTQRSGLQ

[5] = biological target: T3, Muscarinic acetylcholine receptor M2 (Homo sapiens, UniProt P08172); format: functional, cell-based
T3 sequence (P08172 whole entry): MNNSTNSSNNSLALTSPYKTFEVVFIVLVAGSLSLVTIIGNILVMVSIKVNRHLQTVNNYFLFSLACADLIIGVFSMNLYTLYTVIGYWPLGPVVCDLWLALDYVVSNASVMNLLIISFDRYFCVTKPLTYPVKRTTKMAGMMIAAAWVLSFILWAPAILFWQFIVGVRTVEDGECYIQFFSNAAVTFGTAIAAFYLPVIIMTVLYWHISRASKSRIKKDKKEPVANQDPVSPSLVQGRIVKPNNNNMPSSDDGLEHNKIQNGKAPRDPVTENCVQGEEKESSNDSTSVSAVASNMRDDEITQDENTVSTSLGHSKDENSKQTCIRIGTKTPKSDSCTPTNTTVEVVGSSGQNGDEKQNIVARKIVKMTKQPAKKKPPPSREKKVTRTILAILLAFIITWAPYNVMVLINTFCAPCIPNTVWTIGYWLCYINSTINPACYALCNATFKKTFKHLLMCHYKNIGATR

[6] = biological target: T4, Prostaglandin G/H synthase 1 (Rattus norvegicus, UniProt Q63921); format: functional
T4 sequence (Q63921 whole entry): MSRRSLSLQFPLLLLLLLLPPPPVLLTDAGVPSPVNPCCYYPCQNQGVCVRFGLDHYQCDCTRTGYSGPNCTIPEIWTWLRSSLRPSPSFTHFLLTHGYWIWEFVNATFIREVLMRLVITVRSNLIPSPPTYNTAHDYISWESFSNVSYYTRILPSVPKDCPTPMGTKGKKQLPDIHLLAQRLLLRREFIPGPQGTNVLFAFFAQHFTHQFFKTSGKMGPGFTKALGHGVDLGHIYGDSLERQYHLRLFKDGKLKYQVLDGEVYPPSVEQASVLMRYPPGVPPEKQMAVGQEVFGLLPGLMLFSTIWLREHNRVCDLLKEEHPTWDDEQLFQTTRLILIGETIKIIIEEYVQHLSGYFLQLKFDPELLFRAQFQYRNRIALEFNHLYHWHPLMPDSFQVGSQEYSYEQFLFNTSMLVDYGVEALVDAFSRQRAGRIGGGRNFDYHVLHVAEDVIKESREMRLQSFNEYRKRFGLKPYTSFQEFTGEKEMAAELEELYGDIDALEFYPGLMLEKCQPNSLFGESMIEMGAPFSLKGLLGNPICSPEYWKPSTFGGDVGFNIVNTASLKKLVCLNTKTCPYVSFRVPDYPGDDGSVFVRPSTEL

[7] = biological target: T5, Equilibrative nucleoside transporter 1 (Homo sapiens, UniProt Q99808)
T5 sequence (Q99808 whole entry): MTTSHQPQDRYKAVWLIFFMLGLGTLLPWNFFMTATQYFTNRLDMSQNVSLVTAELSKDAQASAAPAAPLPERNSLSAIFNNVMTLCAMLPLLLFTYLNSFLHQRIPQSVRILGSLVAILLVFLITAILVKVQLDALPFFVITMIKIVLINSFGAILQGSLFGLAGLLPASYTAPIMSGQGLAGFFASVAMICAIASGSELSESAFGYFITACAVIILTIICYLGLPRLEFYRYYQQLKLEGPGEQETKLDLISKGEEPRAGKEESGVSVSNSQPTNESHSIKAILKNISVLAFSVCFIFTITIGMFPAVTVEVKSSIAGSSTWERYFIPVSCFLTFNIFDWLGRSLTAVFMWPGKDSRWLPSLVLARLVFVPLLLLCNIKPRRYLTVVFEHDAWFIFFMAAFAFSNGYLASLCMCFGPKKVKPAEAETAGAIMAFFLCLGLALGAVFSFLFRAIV

[8] = biological target: Sodium-dependent noradrenaline transporter (Homo sapiens, UniProt P23975)
[9] = biological target: T6, Type-1 angiotensin II receptor (Homo sapiens, UniProt P30556)
T6 sequence (P30556 whole entry): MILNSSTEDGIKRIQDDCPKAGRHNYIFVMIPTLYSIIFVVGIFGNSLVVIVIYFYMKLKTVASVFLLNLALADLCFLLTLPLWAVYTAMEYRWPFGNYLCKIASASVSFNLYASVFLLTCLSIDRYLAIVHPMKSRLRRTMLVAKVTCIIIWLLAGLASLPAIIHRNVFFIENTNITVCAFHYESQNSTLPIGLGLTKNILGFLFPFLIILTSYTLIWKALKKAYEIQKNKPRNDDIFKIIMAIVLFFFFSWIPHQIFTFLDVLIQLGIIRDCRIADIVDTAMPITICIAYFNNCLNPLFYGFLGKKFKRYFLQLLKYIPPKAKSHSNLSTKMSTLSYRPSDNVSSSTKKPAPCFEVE
Note: assay procedure not described here.

Chain of Sodium-dependent noradrenaline transporter (P23975 whole entry): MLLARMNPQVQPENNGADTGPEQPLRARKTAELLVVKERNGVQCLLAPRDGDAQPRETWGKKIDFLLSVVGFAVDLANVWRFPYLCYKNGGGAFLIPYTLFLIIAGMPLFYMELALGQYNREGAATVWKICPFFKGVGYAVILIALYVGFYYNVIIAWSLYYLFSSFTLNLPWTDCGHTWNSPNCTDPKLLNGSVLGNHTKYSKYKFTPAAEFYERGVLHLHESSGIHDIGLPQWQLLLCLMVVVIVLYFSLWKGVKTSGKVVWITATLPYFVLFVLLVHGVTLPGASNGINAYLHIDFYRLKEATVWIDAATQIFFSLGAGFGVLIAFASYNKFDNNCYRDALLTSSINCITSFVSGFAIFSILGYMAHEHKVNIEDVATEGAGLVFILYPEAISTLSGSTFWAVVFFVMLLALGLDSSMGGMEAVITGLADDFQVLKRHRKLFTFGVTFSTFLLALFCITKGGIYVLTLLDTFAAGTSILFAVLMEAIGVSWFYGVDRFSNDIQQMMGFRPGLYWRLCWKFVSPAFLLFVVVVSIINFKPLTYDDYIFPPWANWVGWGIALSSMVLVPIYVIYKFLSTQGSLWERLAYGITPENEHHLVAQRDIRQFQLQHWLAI
Chain of Motilin receptor (O43193 whole entry): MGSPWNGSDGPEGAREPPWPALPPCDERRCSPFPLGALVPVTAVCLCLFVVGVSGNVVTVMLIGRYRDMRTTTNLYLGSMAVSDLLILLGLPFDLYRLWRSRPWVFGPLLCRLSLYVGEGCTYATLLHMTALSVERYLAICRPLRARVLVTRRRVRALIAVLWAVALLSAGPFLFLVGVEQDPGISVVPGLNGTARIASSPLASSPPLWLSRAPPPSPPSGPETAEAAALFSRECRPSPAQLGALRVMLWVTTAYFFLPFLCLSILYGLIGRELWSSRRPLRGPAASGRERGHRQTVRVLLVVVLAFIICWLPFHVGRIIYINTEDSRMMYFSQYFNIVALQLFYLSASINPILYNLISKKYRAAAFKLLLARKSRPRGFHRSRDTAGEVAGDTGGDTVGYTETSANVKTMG
Chain of Delta-type opioid receptor (P41143 whole entry): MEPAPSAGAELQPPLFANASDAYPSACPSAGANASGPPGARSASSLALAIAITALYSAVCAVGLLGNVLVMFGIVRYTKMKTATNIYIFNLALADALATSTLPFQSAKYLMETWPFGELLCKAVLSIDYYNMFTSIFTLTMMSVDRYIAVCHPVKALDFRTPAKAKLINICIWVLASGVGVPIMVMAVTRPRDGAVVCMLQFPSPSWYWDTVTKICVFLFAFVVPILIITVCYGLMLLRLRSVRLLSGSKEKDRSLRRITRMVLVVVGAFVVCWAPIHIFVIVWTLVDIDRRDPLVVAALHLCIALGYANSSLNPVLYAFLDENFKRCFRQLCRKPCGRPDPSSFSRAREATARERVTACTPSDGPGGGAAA
Chain of Sodium-dependent dopamine transporter (Q01959 whole entry): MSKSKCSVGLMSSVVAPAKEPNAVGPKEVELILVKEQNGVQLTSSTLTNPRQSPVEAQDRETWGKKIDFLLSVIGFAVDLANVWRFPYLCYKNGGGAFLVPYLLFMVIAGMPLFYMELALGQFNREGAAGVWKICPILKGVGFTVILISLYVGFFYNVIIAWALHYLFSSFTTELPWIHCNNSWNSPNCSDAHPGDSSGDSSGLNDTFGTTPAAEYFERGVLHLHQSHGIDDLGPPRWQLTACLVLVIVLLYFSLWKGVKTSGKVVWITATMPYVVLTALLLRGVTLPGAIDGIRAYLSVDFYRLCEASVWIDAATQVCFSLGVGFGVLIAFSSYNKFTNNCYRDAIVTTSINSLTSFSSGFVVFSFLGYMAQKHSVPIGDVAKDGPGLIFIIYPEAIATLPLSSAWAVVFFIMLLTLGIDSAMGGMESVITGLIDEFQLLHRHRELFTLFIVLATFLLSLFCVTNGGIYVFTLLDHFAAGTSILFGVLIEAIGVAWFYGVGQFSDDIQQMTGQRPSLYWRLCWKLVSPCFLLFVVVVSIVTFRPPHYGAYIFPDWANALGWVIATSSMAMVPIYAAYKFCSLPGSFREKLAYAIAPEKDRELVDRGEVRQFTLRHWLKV

Row | SMILES | AC50 (Motilin receptor) [µM] | AC50 [1] [µM] | AC50 [2] [µM] | AC50 [3] [µM] | AC50 [4] [µM] | AC50 (Thromboxane A2 receptor) [µM] | AC50 [5] [µM] | AC50 [6] [µM] | AC50 [7] [µM] | AC50 [8] [µM] | AC50 [9] [µM]
1 | CC(C)COCC(CN(Cc1ccccc1)c1ccccc1)N1CCCC1 (stereo not drawn) [BEPRIDIL] | 20.2 | > 30 | > 30 | 16.2 | > 30 | > 30 | > 30 | > 30 | > 30 | 21 | > 30
2 | CCCCC(=O)O[C@]1(C(=O)CO)[C@@H](C)C[C@H]2[C@@H]3CCC4=CC(=O)C=C[C@]4(C)[C@@]3(F)[C@@H](O)C[C@@]21C [BETAMETHASONE VALERATE] | > 10 | > 30 | > 30 | > 30 | > 10 | > 30 | > 10 | > 30 | > 30 | > 30 | > 30
3 | CCCC(CCC)C(N)=O [VALPROMIDE] | > 10 | > 30 | > 30 | > 30 | > 10 | > 30 | > 10 | > 30 | > 30 | > 30 | > 30
4 | CCCCC1C(=O)N(c2ccccc2)N(c2ccccc2)C1=O [PHENYLBUTAZONE] | > 30 | > 30 | > 30 | > 30 | > 10 | > 30 | > 10 | > 10 | > 30 | > 30 | > 30
5 | CC(C)(C)C(=O)OCC(=O)[C@H]1CC[C@H]2[C@@H]3CCC4=CC(=O)CC[C@]4(C)[C@H]3CC[C@]12C [DESOXYCORTICOSTERONE PIVALATE] | > 10 | > 10 | > 30 | > 10 | > 10 | > 10 | > 10 | > 10 | > 10 | > 10 | > 10
6 | CC(C(=O)O)c1ccc(CC2CCCC2=O)cc1 (stereo not drawn) [LOXOPROFEN] | > 30 | > 30 | > 30 | > 30 | > 30 | > 30 | > 30 | > 30 | > 30 | > 30 | > 30
7 | CCC(=O)O[C@H]1CC[C@H]2[C@@H]3CCC4=CC(=O)CC[C@]4(C)[C@H]3CC[C@]12C [TESTOSTERONE PROPIONATE] | > 10 | > 10 | > 30 | > 10 | > 10 | > 10 | > 10 | > 10 | > 10 | > 10 | > 10
8 | [H]/N=C(/N)N/C(=N/[H])NCCc1ccccc1 [PHENFORMIN] | > 10 | > 30 | > 30 | 25.2 | 2.32 | > 30 | > 10 | > 30 | > 30 | 18.3 | > 30
